# Measurements taken from the supplement of paper PMC10307832.
# What was measured:
# Experiment in all cases: relative viability (nuclei count vs DMSO), 5 days (fraction); higher = more cells survive
# NCI-H2405 = tested on: NCI-H2405
# Method in brief: (§1)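 Lung cancer cell lines in 1536-well plates got either a single drug or a fixed anchor-drug dose together with five library-drug doses (not always all listed) in √10 steps, by pin tool, on the day after seeding. Nuclei were counted after 5 days, and relative viability is the treated-to-vehicle ratio of nuclei counts. Values are medians of duplicate plates.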
# BEN = tested on: BEN
# Method in brief: as §1
# HCC-366 = tested on: HCC-366
# Method in brief: as §1
# LC-2-ad = tested on: LC-2-ad
# Method in brief: as §1
# NCI-H1437 = tested on: NCI-H1437
# Method in brief: as §1
# NCI-H2170 = tested on: NCI-H2170
# Method in brief: as §1
# SK-LU-1 = tested on: SK-LU-1
# Method in brief: as §1
# NCI-H661 = tested on: NCI-H661
# Method in brief: as §1
# LOU-NH91 = tested on: LOU-NH91
# Method in brief: as §1
# EKVX = tested on: EKVX
# Method in brief: as §1
# NCI-H1395 = tested on: NCI-H1395
# Method in brief: as §1
# NCI-H647 = tested on: NCI-H647
# Method in brief: as §1
# NCI-H2342 = tested on: NCI-H2342
# Method in brief: as §1
# NCI-H2087 = tested on: NCI-H2087
# Method in brief: as §1
# HARA = tested on: HARA
# Method in brief: as §1
# NCI-H1355 = tested on: NCI-H1355
# Method in brief: as §1
# SK-MES-1 = tested on: SK-MES-1
# Method in brief: as §1
# NCI-H596 = tested on: NCI-H596
# Method in brief: as §1
# NCI-H1734 = tested on: NCI-H1734
# Method in brief: as §1
# HCC-827 = tested on: HCC-827
# Method in brief: as §1
# NCI-H2009 = tested on: NCI-H2009
# Method in brief: as §1
# NCI-H2228 = tested on: NCI-H2228
# Method in brief: as §1
smiles,measurement,setting,value
Clc1ccc(Nc2nnc(Cc3ccncc3)c3ccccc23)cc1 [Vatalanib] + COc1cc2c(Oc3ccc(NC(=O)C4(C(=O)Nc5ccc(F)cc5)CC4)cc3F)ccnc2cc1OCCCN1CCOCC1 [Foretinib] (partner 0.25 µM),relative viability,NCI-H2405; first compound 0.04 µM,1.04
same,relative viability,NCI-H2405; first compound 0.1265 µM,1.06
same,relative viability,NCI-H2405; first compound 1.265 µM,1.02
same,relative viability,NCI-H2405; first compound 4 µM,0.965
same,relative viability,BEN; first compound 0.04 µM,0.705
same,relative viability,BEN; first compound 0.1265 µM,0.526
same,relative viability,BEN; first compound 0.4 µM,0.845
same,relative viability,BEN; first compound 1.265 µM,0.511
same,relative viability,BEN; first compound 4 µM,0.696
same,relative viability,HCC-366; first compound 0.04 µM,0.85
same,relative viability,HCC-366; first compound 0.1265 µM,0.8
same,relative viability,HCC-366; first compound 0.4 µM,0.895
same,relative viability,HCC-366; first compound 1.265 µM,0.885
same,relative viability,HCC-366; first compound 4 µM,0.949
same,relative viability,LC-2-ad; first compound 0.04 µM,0.999
same,relative viability,LC-2-ad; first compound 0.1265 µM,0.777
same,relative viability,LC-2-ad; first compound 1.265 µM,0.852
same,relative viability,LC-2-ad; first compound 4 µM,0.87
same,relative viability,NCI-H1437; first compound 0.04 µM,1.25
same,relative viability,NCI-H1437; first compound 0.1265 µM,1.27
same,relative viability,NCI-H1437; first compound 0.4 µM,1.4
same,relative viability,NCI-H1437; first compound 1.265 µM,1.21
same,relative viability,NCI-H1437; first compound 4 µM,1.26
same,relative viability,NCI-H2170; first compound 0.04 µM,1.03
same,relative viability,NCI-H2170; first compound 0.1265 µM,1.09
same,relative viability,NCI-H2170; first compound 0.4 µM,1.04
same,relative viability,NCI-H2170; first compound 1.265 µM,0.978
same,relative viability,NCI-H2170; first compound 4 µM,1.02
same,relative viability,SK-LU-1; first compound 0.04 µM,0.807
same,relative viability,SK-LU-1; first compound 0.1265 µM,0.741
same,relative viability,SK-LU-1; first compound 0.4 µM,0.979
same,relative viability,SK-LU-1; first compound 1.265 µM,0.877
same,relative viability,SK-LU-1; first compound 4 µM,0.809
same,relative viability,NCI-H661; first compound 0.04 µM,1
same,relative viability,NCI-H661; first compound 0.1265 µM,1.04
same,relative viability,NCI-H661; first compound 0.4 µM,1.07
same,relative viability,NCI-H661; first compound 1.265 µM,0.975
same,relative viability,NCI-H661; first compound 4 µM,0.989
same,relative viability,LOU-NH91; first compound 0.04 µM,0.887
same,relative viability,LOU-NH91; first compound 0.1265 µM,0.956
same,relative viability,LOU-NH91; first compound 1.265 µM,0.937
same,relative viability,LOU-NH91; first compound 4 µM,0.91
same,relative viability,EKVX; first compound 0.04 µM,0.836
same,relative viability,EKVX; first compound 0.1265 µM,0.838
same,relative viability,EKVX; first compound 0.4 µM,0.551
same,relative viability,EKVX; first compound 4 µM,0.727
same,relative viability,NCI-H1395; first compound 0.04 µM,0.994
same,relative viability,NCI-H1395; first compound 0.1265 µM,1.1
same,relative viability,NCI-H1395; first compound 0.4 µM,1.08
same,relative viability,NCI-H1395; first compound 1.265 µM,0.938
same,relative viability,NCI-H1395; first compound 4 µM,1.02
same,relative viability,NCI-H647; first compound 0.04 µM,1.12
same,relative viability,NCI-H647; first compound 0.1265 µM,1.2
same,relative viability,NCI-H647; first compound 0.4 µM,1.28
same,relative viability,NCI-H647; first compound 1.265 µM,1.18
same,relative viability,NCI-H647; first compound 4 µM,1.1
same,relative viability,NCI-H2342; first compound 0.04 µM,1.08
same,relative viability,NCI-H2342; first compound 0.1265 µM,1.03
same,relative viability,NCI-H2342; first compound 0.4 µM,1.08
same,relative viability,NCI-H2342; first compound 1.265 µM,1.16
same,relative viability,NCI-H2342; first compound 4 µM,1.05
same,relative viability,NCI-H2087; first compound 0.04 µM,1.15
same,relative viability,NCI-H2087; first compound 0.1265 µM,1.08
same,relative viability,NCI-H2087; first compound 0.4 µM,1.27
same,relative viability,NCI-H2087; first compound 1.265 µM,0.958
same,relative viability,NCI-H2087; first compound 4 µM,1.03
same,relative viability,HARA; first compound 0.04 µM,0.853
same,relative viability,HARA; first compound 0.1265 µM,0.757
same,relative viability,HARA; first compound 0.4 µM,0.807
same,relative viability,HARA; first compound 1.265 µM,0.92
same,relative viability,HARA; first compound 4 µM,0.852
same,relative viability,NCI-H1355; first compound 0.04 µM,1.01
same,relative viability,NCI-H1355; first compound 0.1265 µM,1.01
same,relative viability,NCI-H1355; first compound 0.4 µM,1.02
same,relative viability,NCI-H1355; first compound 1.265 µM,0.847
same,relative viability,NCI-H1355; first compound 4 µM,0.971
same,relative viability,SK-MES-1; first compound 0.04 µM,1.02
same,relative viability,SK-MES-1; first compound 0.1265 µM,0.82
same,relative viability,SK-MES-1; first compound 0.4 µM,0.943
same,relative viability,SK-MES-1; first compound 1.265 µM,0.881
same,relative viability,SK-MES-1; first compound 4 µM,0.692
same,relative viability,NCI-H596; first compound 0.04 µM,0.775
same,relative viability,NCI-H596; first compound 0.1265 µM,1.06
same,relative viability,NCI-H596; first compound 0.4 µM,0.909
same,relative viability,NCI-H596; first compound 1.265 µM,0.81
same,relative viability,NCI-H596; first compound 4 µM,0.771
same,relative viability,NCI-H1734; first compound 0.04 µM,0.878
same,relative viability,NCI-H1734; first compound 0.1265 µM,0.833
same,relative viability,NCI-H1734; first compound 0.4 µM,0.912
same,relative viability,NCI-H1734; first compound 1.265 µM,0.736
same,relative viability,NCI-H1734; first compound 4 µM,0.782
same,relative viability,HCC-827; first compound 0.04 µM,1.07
same,relative viability,HCC-827; first compound 0.1265 µM,1.09
same,relative viability,HCC-827; first compound 0.4 µM,0.942
same,relative viability,HCC-827; first compound 1.265 µM,0.927
same,relative viability,HCC-827; first compound 4 µM,1.03
same,relative viability,NCI-H2009; first compound 0.04 µM,1.22
same,relative viability,NCI-H2009; first compound 0.1265 µM,1.14
same,relative viability,NCI-H2009; first compound 0.4 µM,1.24
same,relative viability,NCI-H2009; first compound 1.265 µM,1.2
same,relative viability,NCI-H2009; first compound 4 µM,1.26
same,relative viability,NCI-H2228; first compound 0.04 µM,0.941
same,relative viability,NCI-H2228; first compound 0.1265 µM,0.928
same,relative viability,NCI-H2228; first compound 0.4 µM,0.968
same,relative viability,NCI-H2228; first compound 1.265 µM,0.946
same,relative viability,NCI-H2228; first compound 4 µM,0.778
